# Test results as given in patent US20090081639A1, “Assay for sensitivity to chemotherapeutic agents” (priority 2007, published 2009).
# Experiments:
# Type in all cases: cell-based, human
# [1] = system: THP-1 Acute myeloid leukemia cells; assay: Chemotherapeutic Sensitivity Assay (Gus and/or LacZ output), batch infection with GLV-1h68, Example 3; conditions: for MIC VV / LacZ/infection inhibition: THP-1, GLV-1h68 MOI 10, 24 hours, visual; for MIC VV: β-glucuronidase (Gus) output; for LacZ/infection inhibition: β-galactosidase output
# [2] = system: THP-1 cells; assay: MTT cell viability assay, Example 3; conditions: for MIC MTT / concentration at which cell death / inhibition was observed in the MTT assay: THP-1, approximately 48 hours; for MIC MTT: visual; for concentration at which cell death / inhibition was observed in the MTT assay: text of Example 3
# [3] = system: KG1a cells
# [4] = system: THP-1 cells; assay: Cell viability and growth assay (MTT reduction), Example 2; conditions: THP-1, approximately 48 hours, visual assessment
# [5] = system: HL-60 cells; assay: as above; conditions: HL-60, approximately 48 hours, visual assessment
# [6] = system: HL-60 cells
# [7] = system: KG1a cells; assay: Cell viability and growth assay (MTT reduction), Example 2; conditions: approximately 48 hours, visual assessment
# [8] = system: THP-1 cells
# [9] = THP-1, maximal concentration used
# [10] = THP-1, next lowest concentration
# [11] = THP-1, GLV-1h68, 24 hours, text of Example 3
SMILES,MIC VV [1] [µM],MIC MTT [2] [µM],"concentration at which inhibition of β-glucuronidase expression was observed [1, 11]",LacZ/infection inhibition [1] [µM],concentration at which cell death / inhibition was observed in the MTT assay [2],further results
"O=c1[nH]cc(F)c(=O)[nH]1 [5-Fluorouracil, 5-fluorouracil]",1.9,1.9,,,,"concentration giving very pale blue/pink color in the β-glucuronidase assay, indicating partial cell killing ([1]; THP-1, highest drug concentration tested): 1.9 µM; MTT assay observation [2, 9]: cell death; MTT assay observation [2, 10]: only slight cell death"
"Nc1ccn([C@@H]2O[C@H](CO)[C@@H](O)[C@@H]2O)c(=O)n1 [Ara-C, cytosine arabinoside]",1,1,≥ 1 µM,>1000,≥ 1 µM,"β-galactosidase expression ([1]; THP-1, all concentrations less than the maximal concentration of the drug tested): unaffected; concentration at which limited inhibition of β-galactosidase expression was seen ([1]; THP-1, highest concentration of the drug tested): 1 mM; β-galactosidase expression (P7.5k early/late promoter) in presence of Ara-C ([3]; GLV-1h68 MOI 10, 1 nM-1 mM Ara-C, 24 hours, X-gal, visual assessment): equally robust in the presence or absence of Ara-C; effect on β-glucuronidase expression (P11k late promoter) ([3]; GLV-1h68 MOI 10, 1 nM-1 mM Ara-C, 24 hours, X-gluc, visual assessment): dose-dependent inhibition; concentration at which late viral transcription, as measured by β-glucuronidase expression, was abrogated ([3]; GLV-1h68 MOI 10, 24 hours, 'as low as'): ≥ 100 nM; concentration at which reduction of MTT was abrogated [4]: ≥ 1 µM; concentration at which reduction of MTT was abrogated [5]: ≥ 1 µM; β-galactosidase expression (P7.5k early/late promoter) in presence of Ara-C ([6]; HL-60, GLV-1h68 MOI 10, 1 nM-1 mM Ara-C, 24 hours, X-gal, visual assessment): equally robust in the presence or absence of Ara-C; effect on β-glucuronidase expression (P11k late promoter) ([6]; HL-60, GLV-1h68 MOI 10, 1 nM-1 mM Ara-C, 24 hours, X-gluc, visual assessment): dose-dependent inhibition; concentration at which β-glucuronidase expression was undetectable by eye (complete abrogation of viral late transcription) ([6]; HL-60, GLV-1h68 MOI 10, 24 hours, printed as 1 mM to 1 μM): ≥ 1 µM; concentration at which reduction of MTT was abrogated [7]: ≥ 100 nM; β-galactosidase expression (P7.5k early/late promoter) in presence of Ara-C ([8]; THP-1, GLV-1h68 MOI 10, 1 nM-1 mM Ara-C, 24 hours, X-gal, visual assessment): equally robust in the presence or absence of Ara-C; effect on β-glucuronidase expression (P11k late promoter) ([8]; THP-1, GLV-1h68 MOI 10, 1 nM-1 mM Ara-C, 24 hours, X-gluc, visual assessment): dose-dependent inhibition; concentration at which β-glucuronidase expression was undetectable by eye (complete abrogation of viral late transcription) ([8]; THP-1, GLV-1h68 MOI 10, 24 hours, printed as 1 mM to 1 μM): ≥ 1 µM"
"N.N.[Cl][Pt][Cl] [Cisplatin, cisplatin]",,33,,,,"MIC MTT, qualifier in words ([2]; THP-1, line below the MIC MTT value): partial; MTT assay observation [2, 9]: cell death; MTT assay observation [2, 10]: only slight cell death"
"O=P1(N(CCCl)CCCl)NCCCO1 (stereo not drawn) [Cyclophosphamide, cyclophosphamide]",>100,>100,above 100 μM,,above 100 μM,"concentration at which β-galactosidase expression was inhibited ([1]; THP-1, Example 3): above 100 μM"
"COc1cccc2c1C(=O)c1c(O)c3c(c(O)c1C2=O)C[C@@](O)(C(C)=O)C[C@@H]3O[C@H]1C[C@H](N)[C@H](O)[C@H](C)O1 [Daunorubicin, daunorubicin]",0.01,0.01,,>0.1,≥ 10 µM,"concentration at which some inhibition of β-galactosidase expression was seen ([1]; THP-1, Example 3): greater than 100 nM; concentration at which dose-dependent inhibition of β-glucuronidase expression starts [1, 11]: ≥ 10 nM"
"CC(=O)O[C@@]12CO[C@@H]1C[C@H](O)[C@@]1(C)C(=O)[C@H](O)C3=C(C)[C@@H](OC(=O)[C@H](O)[C@@H](NC(=O)OC(C)(C)C)c4ccccc4)C[C@@](O)([C@@H](OC(=O)c4ccccc4)[C@H]21)C3(C)C [Docetaxel, docetaxel]",460,46,460 µM,>46,46 µM,"concentration at which β-galactosidase expression was inhibited ([1]; THP-1, Example 3): ≥ 46 µM"
"COc1cc([C@@H]2c3cc4c(cc3[C@@H](O[C@@H]3O[C@@H]5CO[C@@H](C)O[C@H]5[C@H](O)[C@H]3O)[C@H]3COC(=O)[C@H]23)OCO4)cc(OC)c1O [Etopocide, etoposide]",5,5,,>50,,
